From patent US7744867B2, “PTPase inhibitors and method of using same” (The Cleveland Clinic Foundation, priority 2001, dated 2010)

Tests used:
[1] = test system: DR cells (Burkitt's Lymphoma); assay: Growth inhibition of human tumor cell lines (MTT); format: cell-based
Method: (§1) FIG. 8 illustrates growth inhibition of human cell lines of hematopoietic malignancies by sodium stibogluconate and/or IFNα: A and B. Growth of DS and DR cells cultured in the absence or presence of various amounts of sodium stibogluconate and/or IFNα (1,000 u/ml) for 3 days was measured by MTT assays; C. Percentage of growth inhibition of DR cells calculated from data in B; D. Percentage of growth inhibition of DR cells by IFNα (1,000 u/ml) and various amounts of sodium stibogluconate in day 6 cultures measured by MTT assays; E. Percentage of growth inhibition of U266 cells by IFNα (1,000 u/ml) and various amounts of sodium stibogluconate in day 6 cultures as measured by MTT assays.

[2] = test system: U266 cells (Multiple myeloma); assay: Growth inhibition of human tumor cell lines (MTT); format: cell-based; conditions: SS 12.5 μg/ml, IFNα 1,000 u/ml, alone or combined
Method: as §1

U266 cells = assay: Apoptotic cells by Annexin V/propidium iodide assay; format: cell-based, human; conditions: sodium stibogluconate 100 μg/ml, IFNα 1000 u/ml, 3 days, control 8%
Method: Detection of apoptotic cells by Annexin V/propidium iodide assay. Annexin V staining of exposed membrane phospholipid phosphatidylserine (PS) was done using the Annexin V assay kit (Pharmingen, San Diego, Calif.). Briefly, U266 or WM9 cells were cultured in the 10% FCS RPMI 1640 medium in the absence or presence of sodium stibogluconate, IFNα, or both for 3 days. Cells were then washed in PBS twice and stained in binding buffer (10 mM Hepes, pH 7.4; 140 mM NaCl; 2.5 mM CaCl2) containing Annexin V-FITC and propidium iodide for 15 min. The reaction was stopped by adding 10 volumes of binding buffer and analyzed by FACS (Becton Dickinson Facsvantage) or fluorescent microscopy.

[3] = molecular target: T1, MKP1 (GST fusion protein) (Homo sapiens, UniProt P28562); assay: In vitro PTPase assay, dephosphorylation of a synthetic phosphotyrosine peptide; format: biochemical
T1 construct: made in house; host or cells: E. coli DH5a
T1 sequence (P28562 whole entry, species assumed, the tested form may be a part): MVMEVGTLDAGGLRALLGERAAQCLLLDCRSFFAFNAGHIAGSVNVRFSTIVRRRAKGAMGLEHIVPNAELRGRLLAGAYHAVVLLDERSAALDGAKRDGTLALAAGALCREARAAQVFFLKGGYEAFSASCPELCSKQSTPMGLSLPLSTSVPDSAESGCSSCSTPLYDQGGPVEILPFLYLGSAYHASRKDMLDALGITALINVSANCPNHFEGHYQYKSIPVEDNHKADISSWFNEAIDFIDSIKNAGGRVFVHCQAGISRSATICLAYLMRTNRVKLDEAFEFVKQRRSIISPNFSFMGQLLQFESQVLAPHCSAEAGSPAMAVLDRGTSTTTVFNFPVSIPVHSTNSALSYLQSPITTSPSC
Method: In vitro PTPase activities were measured using the commercial protein tyrosine phosphatase assay kit (UBI) following established procedure. This assay measures the in vitro dephosphorylation of a synthetic phosphotyrosine peptide (R-R-L-I-E-D-A-E-pY-A-A-R-G). Briefly, 0.01 μg of GST/PTPase fusion protein was incubated in 50 μl of Tris buffer (10 mM Tris, pH 7.4) containing different concentrations of inhibitors or chemicals (0 to 1,000 μg/ml) at 22° C. for 10 minutes, followed by addition of 0.2 mM of the phosphotyrosine peptide and incubation at 22° C. for […]. 100 μl of Malachite Green solution was added and incubated for 5 minutes, and the absorbance at 660 nm was measured after 5 minutes.

intracellular Flag-PRL-1 = molecular target: T2, intracellular Flag-PRL-1 (Homo sapiens, UniProt Q93096); assay: PTPase activity of anti-Flag immunocomplexes from NIH3T3 transfectants; format: cell-based; conditions: treated 5 min
T2 construct: expressed in transfected cells; host or cells: NIH3T3
T2 sequence (Q93096 whole entry): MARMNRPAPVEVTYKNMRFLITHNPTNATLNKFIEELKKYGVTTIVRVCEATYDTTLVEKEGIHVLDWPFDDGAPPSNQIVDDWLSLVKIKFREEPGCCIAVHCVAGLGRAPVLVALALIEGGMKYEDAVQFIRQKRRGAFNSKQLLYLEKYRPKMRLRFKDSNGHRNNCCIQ
Method: (§2) An expression construct of Flag-tagged PRL-1 or control vector was transfected into NIH3T3 cells which were then treated without or with sodium stibogluconate and used for immunoprecipitation assays with a monoclonal anti-Flag antibody. The immunocomplexes were analyzed by SDS-PAGE/Western blotting and PTPase assays. A Flag-tagged protein with a molecular weight approximately 22 kDa as expected for Flag-PRL-1 was detected in the immunocomplexes from untreated or sodium stibogluconate -treated Flag-PRL-1 transfectants but not in those from the control cells (FIG. 6A).
(§3) Glucatime inactivates intracellular PRL phosphatases. NIH3T3 stable transfectants of Flag-tagged PRL-1 (A), PRL-2 (B) and PRL-3 (C) were untreated or treated with glucatime for 5 minutes and then washed to remove cell free drug. The Flag-tagged PRLs were immunoprecipitated from the cells using a monoclonal anti-Flag antibody. The amounts of Flag-tagged PRLs in the immunocomplexes were quantified by SDS-PAGE/Western blotting with the anti-Flag antibody (the top panel). Activities of the immunocomplexes in dephosphorylating a synthetic phosphotyrosine peptide were determined by in vitro PTPase assays (the low panel).

intracellular Flag-PRL-3 = molecular target: T3, intracellular Flag-PRL-3 (Homo sapiens, UniProt O75365); assay: as above; format: cell-based; conditions: treated 5 min
T3 construct: expressed in transfected cells; host or cells: NIH3T3
T3 sequence (O75365 whole entry): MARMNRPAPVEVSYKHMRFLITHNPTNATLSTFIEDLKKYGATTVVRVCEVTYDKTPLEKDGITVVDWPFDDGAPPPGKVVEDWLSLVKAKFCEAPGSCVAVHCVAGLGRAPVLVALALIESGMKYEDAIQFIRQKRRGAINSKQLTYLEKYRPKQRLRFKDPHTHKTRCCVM
Method: as §2, §3

intracellular Flag-PRL-2 = molecular target: T4, intracellular Flag-PRL-2 (Homo sapiens, UniProt Q12974); assay: as above; format: cell-based
T4 construct: expressed in transfected cells; host or cells: NIH3T3
T4 sequence (Q12974 1-167): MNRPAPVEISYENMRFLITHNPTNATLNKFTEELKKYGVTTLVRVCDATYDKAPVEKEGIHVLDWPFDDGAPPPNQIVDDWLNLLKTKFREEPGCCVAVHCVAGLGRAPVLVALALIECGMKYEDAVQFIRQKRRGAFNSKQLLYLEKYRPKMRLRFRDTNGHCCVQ
Method: as §2
Flag-PRL-2 transfectants were briefly treated with sodium stibogluconate for 5 minutes, washed to remove cell-free drug and then incubated for various times prior to termination by cell lysis. Anti-Flag immunocomplexes from the cells were analyzed by SDS-PAGE/Western blotting and PTPase assays. The amounts of Flag-PRL-2 proteins in the immunocomplexes were at similar levels as quantified by probing with an anti-Flag antibody. […] PTPase activity of the immunocomplexes from cells incubated for 24 hours was 78% of the untreated cells.
Glucatime-induced inactivation of intracellular PRL-2 lasts more than 24 hours. NIH3T3 stable transfectant of Flag-tagged PRL-2 was treated with glucatime for 5 minutes, washed to remove cell free drug and then incubated for various times prior to termination by lysing the cells in lysis buffer. Flag-tagged PRL-2 was immunoprecipitated from the cell lysates using a monoclonal anti-Flag antibody. The amounts of Flag-tagged PRL-2 in the immunocomplexes were quantified by SDS-PAGE/Western blotting with the anti-Flag antibody (A). Activities of the immunocomplexes in dephosphorylating a synthetic phosphotyrosine peptide were determined by in vitro PTPase assays (B).

Molecule | % of growth inhibition by day 6 (±s.d.) ([1]; DR, SS 12.5 μg/ml, IFNα 1,000 u/ml, alone or combined) [%] | growth inhibition of DR cells, day 3 ([1]; IFNα 1,000 u/ml alone or with various amounts of sodium stibogluconate, day 3) [%] | % of growth inhibition by day 6 (±s.d.) [2] | percentage of apoptotic cells (U266 cells) [%] | inhibitory activity against MKP1 [3] | PTPase activity of Flag-PRL-1 immunocomplexes from treated transfectants (intracellular Flag-PRL-1) | PTPase activity of Flag-PRL-3 immunocomplexes from treated transfectants (intracellular Flag-PRL-3) | PTPase activity of Flag-PRL-2 immunocomplexes from treated transfectants (intracellular Flag-PRL-2; treated 5 min) | duration of intracellular PRL-2 inactivation (intracellular Flag-PRL-2; treated 5 minutes, washed to remove cell free drug)
IFNα | 39 | 19 | 78 (10) % | 16 | – | – | – | – | –
O.O.O.O.O.O.O.O.O.O=C([O-])[C@@H]1[O][Sb]2([O-])([O][Sb]34([OH])[O][C@H]([C@H](O)CO)[C@H]([O]3)[C@H](C(=O)[O-])[O]4)[O][C@H]([C@H](O)CO)[C@@H]1[O]2.[Na+].[Na+].[Na+] [sodium stibogluconate] | – | – | – | – | no obvious inhibitory activity | little PTPase activities | lack of PTPase activity | lack of PTPase activity | at least 24 hours
